# Source: the supplement of paper PMC9549728
# Where a name gives a salt, the structure may show the parent alone.
# Legend:
# Experiment in all cases: IC50 (viability, PrestoBlue) (log10 nM)
# Conditions in all cases: exposure time: 72 h
# [1] = test system: murine normal gastric organoid
# Procedure: (§1)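 Murine gastric corpus organoids (normal uninduced; RAS-activated Kras G12D/Tp53 R172H; diffuse Cdh1/Apc loss; WNT-activated Apc loss/Tp53 R172H) were seeded in Matrigel into pre-spotted 384-well plates. The plates held a 196-compound library at 6.7 nM to 25,004 nM (9 doses) and were incubated 72 h. Viability was read by PrestoBlue fluorescence (560/590 nm). IC50 came from non-linear regression (Prism), reported as log10 IC50 in nM, mean of 3 passages x 2 wells.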
# [2] = test system: murine gastric organoid diffuse (Cdh1 fl/fl; Apc fl/fl)
# Procedure: as §1
# [3] = test system: murine gastric organoid WNT-activated (Apc fl/fl; Tp53 R172H)
# Procedure: as §1
# [4] = test system: murine gastric organoid RAS-activated (Kras G12D; Tp53 R172H)
# Procedure: as §1
Compound,IC50 (log10 nM) [1],IC50 (log10 nM) [2],IC50 (log10 nM) [3],IC50 (log10 nM) [4]
CNC(=O)[C@@H](NC(=O)[C@H](CC(C)C)[C@H](O)C(=O)NO)C(C)(C)C [Marimastat],4.37,> 4.4,4.02,< 0.826
Cc1ccc(NC(=O)c2ccc(CN3CCN(C)CC3)cc2)cc1Nc1nc(-c2cccnc2)cs1 [Masitinib mesylate],3.68,4.25,3.35,2.38
N[C@@H](Cc1ccc(N(CCCl)CCCl)cc1)C(=O)O [Melphalan],3.09,3.34,2.26,3.27
CN(Cc1cnc2nc(N)nc(N)c2n1)c1ccc(C(=O)N[C@@H](CCC(=O)O)C(=O)O)cc1 [Methotrexate],3.41,> 4.4,4.36,3.43
CO[C@@]12[C@H](COC(N)=O)C3=C(C(=O)C(C)=C(N)C3=O)N1C[C@@H]1N[C@@H]12 [Mitomycin C],2.64,2.68,2.7,2.5
O=C1c2c(O)ccc(O)c2C(=O)c2c(NCCNCCO)ccc(NCCNCCO)c21 [Mitoxantrone dihydrochloride],2.13,2.41,3.38,2.2
CCOc1cc2ncc(C#N)c(Nc3ccc(OCc4ccccn4)c(Cl)c3)c2cc1NC(=O)/C=C/CN(C)C [Neratinib],2.48,3.13,2.94,> 4.4
Cc1sc2c(c1C)C(c1ccc(Cl)cc1)=N[C@@H](CC(=O)Nc1ccc(O)cc1)c1nnc(C)n1-2 [OTX-015],2.22,2.47,2.85,3.11
COC1=CC(c2cc3ccccc3[nH]2)=N/C1=C\c1[nH]c(C)cc1C [Obatoclax],2.31,3.06,2.26,2.81
C=CC(=O)Nc1cc(Nc2nccc(-c3cn(C)c4ccccc34)n2)c(OC)cc1N(C)CCN(C)C [Osimertinib],2.73,3.05,2.46,3.89
C1=N/C2=N/c3ccc(OCCN4CCCC4)c(c3)COC/C=C/COCc3cccc(c3)C(=C1)N2 [Pacritinib],3.23,3.48,2.91,3.76
CC(=O)c1c(C)c2cnc(Nc3ccc(N4CCNCC4)cn3)nc2n(C2CCCC2)c1=O [Palbociclib],4.24,4.37,4.13,4.07
Cc1[nH]c2ccccc2c1CCNCc1ccc(/C=C/C(=O)NO)cc1 [Panobinostat],3.17,2.82,3.02,1.81
Cc1ccc(Nc2nccc(N(C)c3ccc4c(C)n(C)nc4c3)n2)cc1S(N)(=O)=O [Pazopanib],4.21,1.42,> 4.4,> 4.4
CCCCCCCCCCCCCCCCCCOP(=O)([O-])OC1CC[N+](C)(C)CC1 [Perifosine],< 0.826,> 4.4,1.16,< 0.826
Cc1ccc(C(=O)Nc2ccc(CN3CCN(C)CC3)c(C(F)(F)F)c2)cc1C#Cc1cnc2cccnn12 [Ponatinib],3.04,3.08,1.71,3.27
CC(C)(C)c1cc(NC(=O)Nc2ccc(-c3cn4c(n3)sc3cc(OCCN5CCOCC5)ccc34)cc2)no1 [Quizartinib],3.06,3.09,2.01,< 0.826
COc1cc(Nc2ncc(F)c(Nc3ccc4c(n3)N(COP(=O)(O)O)C(=O)C(C)(C)O4)n2)cc(OC)c1OC [R788 disodium hexahydrate],3.46,2.99,2.5,3.21
